We go through 13 compounds from patent US9850283B2, “Macrocyclic inhibitors of the PD-1/PD-L1 and CD80(B7-1)/PD-L1 protein/protein interactions” (BRISTOL-MYERS SQUIBB COMPANY, priority 2013, dated 2017).

Assay [1] addresses T1, LK35.2-hPD-L1 cells / PE-labeled PD-1-Ig (Homo sapiens, UniProt Q9NZQ7).
T1 construct: expressed in transfected cells; host or cells: LK35.2 mouse B cell line
As to the kind of experiment: LK35.2-hPD-L1 cell binding high-content screening assay. It counts as cell-based. Particulars: cell binding assay, cell line not given; cluster symbol; read-out: CBA IC50 cluster. The essentials:
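Mouse LK35.2 B cells stably overexpressing human PD-L1 were cultured overnight in RPMI with 10% FCS, then given compound and PE-labeled human PD-1-Ig (1 nM final) for 1 h at 37 °C. After three dPBS washes, bound fluorescence was quantified by high-content imaging.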

The next assay has as its target T2, Human PD-L1/PD-1 (Homo sapiens, UniProt Q9NZQ7).
T2 construct: made in house; host or cells: HEK293T
As to the kind of experiment: HTRF PD-1-Ig/PD-L1-His binding assay (human PD-L1). The conditions noted are these: cluster symbol; read-out: HTRF IC50 cluster. The essentials:
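Readout: time-resolved FRET between Eu cryptate-labeled anti-Ig (1 nM final) and APC-labeled anti-His (20 nM final) antibodies. These detect interaction of Fc-fused PD-1 with His-tagged human PD-L1 in dPBS containing 0.1% BSA and 0.05% Tween-20.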

The structures appear in SMILES notation. Starred links: 1 amine or outer side, 2 acyl side, 3 side chain; linkers in the order of their positions; H or OH if unused. Positions of bridges follow the written chain, without caps; N, C: chain ends. Non-standard residues stand in square brackets, D forms with d. Residues, ends and D or L forms follow the SMILES beside them. Pro(trans-4-Ph) = O=C(O)[C@@H]1C[C@@H](c2ccccc2)CN1; X3 = O=C([C@@H]1C[C@@H](Cc2ccc(F)cc2)CN1[*:1])[*:2]; X17 = O=C([C@@H]1C[C@@H](c2nn[nH]n2)CN1[*:1])[*:2]; Pro(4R-Bn) = O=C(O)[C@@H]1C[C@@H](Cc2ccccc2)CN1; Pro(trans-4-F) = O=C(O)[C@@H]1C[C@@H](F)CN1; NMeNle = CCCC[C@H](NC)C(=O)O; NMeA = CN[C@@H](C)C(=O)O; Orn = NCCC[C@H](N)C(=O)O; Dab = NCC[C@H](N)C(=O)O; Dap = NC[C@H](N)C(=O)O

T2 sequence (Q9NZQ7 with tags, fused parts or gaps): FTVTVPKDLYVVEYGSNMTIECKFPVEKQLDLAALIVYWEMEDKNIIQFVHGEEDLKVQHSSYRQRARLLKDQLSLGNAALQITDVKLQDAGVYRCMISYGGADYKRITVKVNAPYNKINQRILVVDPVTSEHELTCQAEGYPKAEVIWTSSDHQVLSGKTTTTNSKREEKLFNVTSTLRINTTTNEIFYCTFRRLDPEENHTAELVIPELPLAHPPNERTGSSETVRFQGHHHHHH
T1 sequence (Q9NZQ7 19-290): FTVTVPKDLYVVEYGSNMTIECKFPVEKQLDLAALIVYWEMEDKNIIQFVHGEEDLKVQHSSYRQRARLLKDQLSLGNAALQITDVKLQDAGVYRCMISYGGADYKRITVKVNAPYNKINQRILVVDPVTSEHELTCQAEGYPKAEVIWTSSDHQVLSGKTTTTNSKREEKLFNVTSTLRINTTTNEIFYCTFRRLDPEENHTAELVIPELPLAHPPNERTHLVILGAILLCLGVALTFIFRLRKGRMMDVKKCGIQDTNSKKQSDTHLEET

The IC50 is the concentration needed to halve the response being measured. Turning to `CCCC[C@H]1C(=O)N(C)[C@@H](CCCC)C(=O)N[C@@H](CCN)C(=O)N[C@H](C(=O)NCC(N)=O)CSCC(=O)N[C@@H](Cc2ccc(O)cc2)C(=O)N(C)[C@@H](C)C(=O)N[C@@H](CC(N)=O)C(=O)N2CCC[C@H]2C(=O)N[C@@H](Cc2c[nH]cn2)C(=O)N[C@@H](CCC(=O)O)C(=O)N2C[C@H](F)C[C@H]2C(=O)N[C@@H](Cc2c[nH]c3ccccc23)C(=O)N[C@@H](CCN)C(=O)N[C@@H](Cc2c[nH]c3ccccc23)C(=O)N1C` [Example 13001] ({CH2CO}-Y[NMeA]NPHE[Pro(trans-4-F)]W[Dab]W[NMeNle][NMeNle][Dab]CG-NH2; thioether N-14), the IC50 in assay [1] lay within 0.158 to 4.71 nM; on Human PD-L1/PD-1, 0.385 to 6.74 nM.
For the compound `CCCC[C@H]1C(=O)N(C)[C@@H](CCCC)C(=O)N[C@@H](C)C(=O)N[C@H](C(=O)NCC(N)=O)CSCC(=O)N[C@@H](Cc2ccc(O)cc2)C(=O)N(C)[C@@H](C)C(=O)N[C@@H](CC(=O)O)C(=O)N2CCC[C@H]2C(=O)N[C@@H](Cc2c[nH]cn2)C(=O)N[C@@H](CCC(=O)O)C(=O)N2C[C@H](F)C[C@H]2C(=O)N[C@@H](Cc2c[nH]c3ccccc23)C(=O)N[C@@H](CCN)C(=O)N[C@@H](Cc2c[nH]c3ccccc23)C(=O)N1C` [Example 13002] ({CH2CO}-Y[NMeA]DPHE[Pro(trans-4-F)]W[Dab]W[NMeNle][NMeNle]ACG-NH2; thioether N-14), the IC50 in assay [1] is 0.158 to 4.71 nM; on Human PD-L1/PD-1, 0.385 to 6.74 nM.
Taken in the same sequence, the figures for `CCCC[C@H]1C(=O)N(C)[C@@H](CCCC)C(=O)N[C@@H](CCCN)C(=O)N[C@H](C(=O)NCC(N)=O)CSCC(=O)N[C@@H](Cc2ccc(O)cc2)C(=O)N(C)[C@@H](C)C(=O)N[C@@H](CC(N)=O)C(=O)N2CCC[C@H]2C(=O)N[C@@H](CN)C(=O)N[C@@H](CC(C)C)C(=O)N2C[C@H](F)C[C@H]2C(=O)N[C@@H](Cc2c[nH]c3ccccc23)C(=O)N[C@@H](CO)C(=O)N[C@@H](Cc2c[nH]c3ccccc23)C(=O)N1C` [Example 13003] ({CH2CO}-Y[NMeA]NP[Dap]L[Pro(trans-4-F)]WSW[NMeNle][NMeNle][Orn]CG-NH2; thioether N-14) were 0.158 to 4.71 nM and 0.385 to 6.74 nM.
As for `CCCC[C@H]1C(=O)N(C)[C@@H](CCCC)C(=O)N[C@@H](CCN)C(=O)N[C@H](C(=O)NCC(N)=O)CSCC(=O)N[C@@H](Cc2ccc(O)cc2)C(=O)N(C)[C@@H](C)C(=O)N[C@@H](CC(N)=O)C(=O)N2CCC[C@H]2C(=O)N[C@@H](Cc2c[nH]cn2)C(=O)N[C@@H](CCC(=O)O)C(=O)N2C[C@H](c3nn[nH]n3)C[C@H]2C(=O)N[C@@H](Cc2c[nH]c3ccccc23)C(=O)N[C@@H](CCN)C(=O)N[C@@H](Cc2c[nH]c3ccccc23)C(=O)N1C` [Example 13004] ({CH2CO}-Y[NMeA]NPHE[X17]W[Dab]W[NMeNle][NMeNle][Dab]CG-NH2; thioether N-14), the IC50 in assay [1] lay within 0.158 to 4.71 nM; at Human PD-L1/PD-1 it was 0.385 to 6.74 nM.
As for `CCCC[C@H]1C(=O)N(C)[C@@H](CCCC)C(=O)N[C@@H](CCN)C(=O)N[C@H](C(=O)NCC(N)=O)CSCC(=O)N[C@@H](Cc2ccc(O)cc2)C(=O)N(C)[C@@H](C)C(=O)N[C@@H](CC(N)=O)C(=O)N2CCC[C@H]2C(=O)N[C@@H](Cc2c[nH]cn2)C(=O)N[C@@H](CCC(=O)O)C(=O)N2C[C@H](Cc3ccccc3)C[C@H]2C(=O)N[C@@H](Cc2c[nH]c3ccccc23)C(=O)N[C@@H](CCN)C(=O)N[C@@H](Cc2c[nH]c3ccccc23)C(=O)N1C` [Example 13007] ({CH2CO}-Y[NMeA]NPHE[Pro(4R-Bn)]W[Dab]W[NMeNle][NMeNle][Dab]CG-NH2; thioether N-14), the figures for the concentration for half-maximal inhibition (IC50) (in assay [1]; on Human PD-L1/PD-1) were 0.158 to 4.71 nM and 0.385 to 6.74 nM, respectively.
Taken in the same sequence, the figures for `CCCC[C@H]1C(=O)N(C)[C@@H](CCCC)C(=O)N[C@@H](C)C(=O)N[C@H](C(=O)NCC(N)=O)CSCC(=O)N[C@@H](Cc2ccc(O)cc2)C(=O)N(C)[C@@H](C)C(=O)N[C@@H](CC(=O)O)C(=O)N2CCC[C@H]2C(=O)N[C@@H](Cc2c[nH]cn2)C(=O)N[C@@H](CCC(=O)O)C(=O)N2C[C@H](Cc3ccccc3)C[C@H]2C(=O)N[C@@H](Cc2c[nH]c3ccccc23)C(=O)N[C@@H](CCN)C(=O)N[C@@H](Cc2c[nH]c3ccccc23)C(=O)N1C` [Example 13008] ({CH2CO}-Y[NMeA]DPHE[Pro(4R-Bn)]W[Dab]W[NMeNle][NMeNle]ACG-NH2; thioether N-14) were 0.158 to 4.71 nM and 0.385 to 6.74 nM.
Consider `CCCC[C@H]1C(=O)N(C)[C@@H](CCCC)C(=O)N[C@@H](CCCN)C(=O)N[C@H](C(=O)NCC(N)=O)CSCC(=O)N[C@@H](Cc2ccc(O)cc2)C(=O)N(C)[C@@H](C)C(=O)N[C@@H](CC(N)=O)C(=O)N2CCC[C@H]2C(=O)N[C@@H](CN)C(=O)N[C@@H](CC(C)C)C(=O)N2C[C@H](Cc3ccccc3)C[C@H]2C(=O)N[C@@H](Cc2c[nH]c3ccccc23)C(=O)N[C@@H](CO)C(=O)N[C@@H](Cc2c[nH]c3ccccc23)C(=O)N1C` [Example 13009] ({CH2CO}-Y[NMeA]NP[Dap]L[Pro(4R-Bn)]WSW[NMeNle][NMeNle][Orn]CG-NH2; thioether N-14), for which the IC50 lay within 0.158 to 4.71 nM in assay [1] and 0.385 to 6.74 nM at Human PD-L1/PD-1.
Regarding `CCCC[C@H]1C(=O)N(C)[C@@H](CCCC)C(=O)N[C@@H](CCC(=O)O)C(=O)N[C@H](C(=O)NCC(N)=O)CSCC(=O)N[C@@H](Cc2ccc(O)cc2)C(=O)N(C)[C@@H](C)C(=O)N[C@@H](CC(=O)O)C(=O)N2CCC[C@H]2C(=O)N[C@@H](Cc2c[nH]cn2)C(=O)N[C@@H](CCCCN)C(=O)N2C[C@H](Cc3ccccc3)C[C@H]2C(=O)N[C@@H](Cc2c[nH]c3ccccc23)C(=O)N[C@@H](CCCCN)C(=O)N[C@@H](Cc2c[nH]c3ccccc23)C(=O)N1C` [Example 13010] ({CH2CO}-Y[NMeA]DPHK[Pro(4R-Bn)]WKW[NMeNle][NMeNle]ECG-NH2; thioether N-14), the IC50 in assay [1] lay within 0.158 to 4.71 nM; at Human PD-L1/PD-1, 0.385 to 6.74 nM.
For the compound `CCCC[C@H]1C(=O)N(C)[C@@H](CCCC)C(=O)N[C@@H](C)C(=O)N[C@H](C(=O)NCC(N)=O)CSCC(=O)N[C@@H](Cc2ccc(O)cc2)C(=O)N(C)[C@@H](C)C(=O)N[C@@H](CC(=O)O)C(=O)N2CCC[C@H]2C(=O)N[C@@H](Cc2c[nH]cn2)C(=O)N[C@@H](CCC(=O)O)C(=O)N2C[C@H](Cc3ccc(F)cc3)C[C@H]2C(=O)N[C@@H](Cc2c[nH]c3ccccc23)C(=O)N[C@@H](CCN)C(=O)N[C@@H](Cc2c[nH]c3ccccc23)C(=O)N1C` [Example 13012] ({CH2CO}-Y[NMeA]DPHE[X3]W[Dab]W[NMeNle][NMeNle]ACG-NH2; thioether N-14), the figures for the concentration for half-maximal inhibition (IC50) (in assay [1]; at Human PD-L1/PD-1) were 0.158 to 4.71 nM and 0.385 to 6.74 nM, respectively.
On to `CCCC[C@H]1C(=O)N(C)[C@@H](CCCC)C(=O)N[C@@H](CCCN)C(=O)N[C@H](C(=O)NCC(N)=O)CSCC(=O)N[C@@H](Cc2ccc(O)cc2)C(=O)N(C)[C@@H](C)C(=O)N[C@@H](CC(N)=O)C(=O)N2CCC[C@H]2C(=O)N[C@@H](CN)C(=O)N[C@@H](CC(C)C)C(=O)N2C[C@H](Cc3ccc(F)cc3)C[C@H]2C(=O)N[C@@H](Cc2c[nH]c3ccccc23)C(=O)N[C@@H](CO)C(=O)N[C@@H](Cc2c[nH]c3ccccc23)C(=O)N1C` [Example 13013], for which the IC50 was in the range of 0.158 to 4.71 nM in assay [1] and 0.385 to 6.74 nM on Human PD-L1/PD-1.
On to `CCCC[C@H]1C(=O)N(C)[C@@H](CCCC)C(=O)N[C@@H](CCC(=O)O)C(=O)N[C@H](C(=O)NCC(N)=O)CSCC(=O)N[C@@H](Cc2ccc(O)cc2)C(=O)N(C)[C@@H](C)C(=O)N[C@@H](CC(=O)O)C(=O)N2CCC[C@H]2C(=O)N[C@@H](Cc2c[nH]cn2)C(=O)N[C@@H](CCCCN)C(=O)N2C[C@H](Cc3ccc(F)cc3)C[C@H]2C(=O)N[C@@H](Cc2c[nH]c3ccccc23)C(=O)N[C@@H](CCCCN)C(=O)N[C@@H](Cc2c[nH]c3ccccc23)C(=O)N1C` [Example 13014] ({CH2CO}-Y[NMeA]DPHK[X3]WKW[NMeNle][NMeNle]ECG-NH2; thioether N-14), for which the IC50 in assay [1] was over 74.3 nM; at Human PD-L1/PD-1 it was 0.385 to 6.74 nM.
Consider `CCCC[C@H]1C(=O)N(C)[C@@H](CCCC)C(=O)N[C@@H](CCCN)C(=O)N[C@H](C(=O)NCC(N)=O)CSCC(=O)N[C@@H](Cc2ccc(O)cc2)C(=O)N(C)[C@@H](C)C(=O)N[C@@H](CC(N)=O)C(=O)N2CCC[C@H]2C(=O)N[C@@H](CN)C(=O)N[C@@H](CC(C)C)C(=O)N2C[C@H](c3ccccc3)C[C@H]2C(=O)N[C@@H](Cc2c[nH]c3ccccc23)C(=O)N[C@@H](CO)C(=O)N[C@@H](Cc2c[nH]c3ccccc23)C(=O)N1C` [Example 14001] ({CH2CO}-Y[NMeA]NP[Dap]L[Pro(trans-4-Ph)]WSW[NMeNle][NMeNle][Orn]CG-NH2; thioether N-14), for which the IC50 was in the range of 0.158 to 4.71 nM in assay [1] and 0.385 to 6.74 nM on Human PD-L1/PD-1.
Taken in the same sequence, the figures for `CCCC[C@H]1C(=O)N(C)[C@@H](CCCC)C(=O)N[C@@H](CCC(=O)O)C(=O)N[C@H](C(=O)NCC(N)=O)CSCC(=O)N[C@@H](Cc2ccc(O)cc2)C(=O)N(C)[C@@H](C)C(=O)N[C@@H](CC(=O)O)C(=O)N2CCC[C@H]2C(=O)N[C@@H](Cc2c[nH]cn2)C(=O)N[C@@H](CCCCN)C(=O)N2C[C@H](c3ccccc3)C[C@H]2C(=O)N[C@@H](Cc2c[nH]c3ccccc23)C(=O)N[C@@H](CCCCN)C(=O)N[C@@H](Cc2c[nH]c3ccccc23)C(=O)N1C` [Example 14002] ({CH2CO}-Y[NMeA]DPHK[Pro(trans-4-Ph)]WKW[NMeNle][NMeNle]ECG-NH2; thioether N-14) were 0.158 to 4.71 nM and 0.385 to 6.74 nM.
